In brackets after ≈: the same amount, converted by molar mass. Entries after “also recorded” stand apart in the source; their conditions may differ. Read-outs that look alike come from different tables or passages of the source.
How the values were obtained:
Candida albicans = experiment: In vitro antifungal activity against Candida albicans, MIC by twofold micro-broth dilution (Test Example 3); assay type: cell-based; conditions: 48 hours at 35° C., pH 7.0, read-out: MIC
Protocol: MICs were determined by the twofold micro-broth dilution method with RPMI 1640 buffered with morphorino-propanesulfonic acid to a final molarity of 0.165M (pH 7.0). One hundred μl of a yeast cell suspension (1 to 5×10^3 cells/ml) and 100 μl of the compound-containing medium were pipetted into each well flat-bottomed microtiter plates. After incubation for 48 hours at 35° C., the turbidity of each well was measured at 630 nm.

dermatophytes = experiment: Antifungal activity against dermatophytes compared with racemic mixtures (general statement); conditions: especially highly sensitive strains
Aspergillus fumigatus = experiment: In vitro antifungal activity against Aspergillus fumigatus, MIC by twofold agar dilution (Test Example 4); assay type: cell-based; conditions: read-out: MIC
Protocol: MICs were determined by the twofold agar dilution method with casitone agar which constituted with 0.9% bactocasitone, 1% bacto-yeast extract, 2% glucose, 0.1% KH2 PO4, 0.1% Na2 HPO4, 1% Na3 C6 H5 O7 and 1.6% agar. A loopful of each inoculum (1×10^6 conidia/ml) was streaked onto the agar plate containing a compound, and a fungal growth was observed after incubation for 48 hours at 35° C. The MIC was determined as the lowest drug concentration which prevented a visible fungal growth.

Trichophyton rubrum = experiment: In vitro activity against Trichophyton rubrum, MIC by twofold macro-broth dilution (Test Example 1); assay type: cell-based
Protocol: (§1) Minimum inhibitory concentrations (MICs) were determined by the twofold macro-broth dilution method with Sabouraud's glucose broth which constituted with 1% bactopeptone and 4% glucose. To each tube containing 9.8 ml of the broth, 0.1 ml of each testing compound dissolved in DMSO and 0.1 ml of a conidial suspension (1×10^6 conidia/ml) were added. The fungal growth was observed after incubation for 7 days at 27° C. The MIC was determined as the lowest drug concentration which prevented a visible fungal growth.

[1] = system: Trichophyton mentagrophytes; experiment: In vitro activity against Trichophyton mentagrophytes, MIC by twofold macro-broth dilution (Test Example 1); assay type: cell-based; conditions: for MIC: Trichophyton mentagrophytes, 7 days at 27° C.
Protocol: as §1

[2] = system: trichophyton mentagrophytes TIMM 2789; experiment: Therapeutic efficacy on experimental tinea pedis in guinea pigs (Test Example 2); assay type: in vivo
Protocol: Male Hartley guinea pigs (Japan SLC Inc.) weighing 400 to 620 g were used for the infection study. One side of a paper disc (1.5 mm thick×8 mm diameter) was covered with a piece of aluminum foil while the other side was free to carry the inoculum suspension. The disc was immersed with 50 μl of the inoculum suspension (trichophyton mentagrophytes TIMM 2789, 1×10^8 conidia/ml), and was then fixed on the planta pedis of animal feet with an adhesive elastic tape. The disc was removed on the seventh day postinfection. Each agent dissolved in PEG 400 (0.1 ml/locus) was topically applied to the whole soles of guinea pigs once a day for 3 consecutive days, starting on the 10th day postinfection. Five days after the last treatment, the skin tissue from each planta pedis and the corresponding tarsus of all animals was cut into small blocks (about 2×2 mm). Ten skin blocks obtained from each part of the foot were implanted on a Sabouraud's glucose agar plate containing antibiotics, and were cultured at 27° C. for 14 days. The skin blocks yielding fungal growth were regarded as culture-positive, and the foot (planta pedis plus tarsus) with more than one culture-positive skin block was considered fungus-positive. In addition, the intensity of infection was assessed by the scores based on the number of culture-positive skin blocks. Namely, +10, +9, +8, +7, +6, +5, +4, +3, +2, +1 or 0 was given as the score according to the corresponding number of culture-positive skin blocks out of ten skin blocks studied. Statistical analyses for the rate of fungus-positive feet and the average intensity of infection were assessed by Fisher's exact probably test and Mann-Whitney's U-test, respectively.

[3] = 0.5% in PEG 400, topical once a day for 3 days, p < 0.01 vs untreated and PEG 400 control
[4] = 1% in PEG 400, topical once a day for 3 days, p < 0.01 vs untreated and PEG 400, Compound (A) also p < 0.05 vs 1% Racemic Compound (A)
[5] = 1% in PEG 400, topical once a day for 3 days, p < 0.01 vs untreated and PEG 400 control

MIC (Candida albicans; IFO0197, strain IFO 0197, 80% inhibition): 0.0625 µg/mL (≈ 0.195 µM)
MIC (Candida albicans; IFO0579, strain IFO 0579, 80% inhibition): 0.0313 µg/mL (≈ 0.0979 µM)
MIC (Candida albicans; IFO1269, strain IFO 1269, 80% inhibition): 0.0625 µg/mL (≈ 0.195 µM)
MIC (Candida albicans; IFO1270, strain IFO 1270, 80% inhibition): 0.25 µg/mL (≈ 0.782 µM)
MIC (Candida albicans; IFO1385, strain IFO 1385, 80% inhibition): 0.0625 µg/mL (≈ 0.195 µM)
MIC (Candida albicans; IFO1386, strain IFO 1386, 80% inhibition): 0.125 µg/mL (≈ 0.391 µM)
MIC (Candida albicans; TIMM3163, strain TIMM 3163, 80% inhibition): 4 µg/mL (≈ 12.5 µM)
MIC (Candida albicans; TIMM3164, strain TIMM 3164, 80% inhibition): 0.25 µg/mL (≈ 0.782 µM)
MIC (Candida albicans; TIMM3165, strain TIMM 3165, 80% inhibition): 2 µg/mL (≈ 6.25 µM)
MIC (Candida albicans; TIMM3166, strain TIMM 3166, 80% inhibition): 1 µg/mL (≈ 3.13 µM)
MIC (Aspergillus fumigatus; TIMM0063, strain TIMM 0063, 48 hours at 35° C.): 0.63 ng/mL (≈ 0.00197 µM)
MIC (Aspergillus fumigatus; TIMM0078, strain TIMM 0078, 48 hours at 35° C.): 0.63 ng/mL (≈ 0.00197 µM)
MIC (Aspergillus fumigatus; TIMM1728, strain TIMM 1728, 48 hours at 35° C.): 1.3 ng/mL (≈ 0.00406 µM)
MIC (Aspergillus fumigatus; TIMM1767, strain TIMM 1767, 48 hours at 35° C.): 1.3 ng/mL (≈ 0.00406 µM)
MIC (Trichophyton rubrum; IFO5467, 168 h, strain IFO 5467, 7 days at 27° C.): 1.3 ng/mL (≈ 0.00406 µM)
MIC (Trichophyton rubrum; IFO5807, 168 h, strain IFO 5807, 7 days at 27° C.): 2.5 ng/mL (≈ 0.00782 µM)
MIC (Trichophyton rubrum; IFO5808, 168 h, strain IFO 5808, 7 days at 27° C.): 2.5 ng/mL (≈ 0.00782 µM)
MIC (Trichophyton rubrum; IFO6203, 168 h, strain IFO 6203, 7 days at 27° C.): 2.5 ng/mL (≈ 0.00782 µM)
MIC (Trichophyton rubrum; IFO6204, 168 h, strain IFO 6204, 7 days at 27° C.): 2.5 ng/mL (≈ 0.00782 µM)
MIC (Trichophyton rubrum; IFO9185, 168 h, strain IFO 9185, 7 days at 27° C.): 1.3 ng/mL (≈ 0.00406 µM)
MIC (Trichophyton rubrum; TIMM1822, 168 h, strain TIMM 1822, 7 days at 27° C.): 1.3 ng/mL (≈ 0.00406 µM)
MIC (Trichophyton rubrum; TIMM1823, 168 h, strain TIMM 1823, 7 days at 27° C.): 2.5 ng/mL (≈ 0.00782 µM)
MIC (Trichophyton rubrum; TIMM1824, 168 h, strain TIMM 1824, 7 days at 27° C.): 1.3 ng/mL (≈ 0.00406 µM)
MIC (Trichophyton rubrum; TIMM1830, 168 h, strain TIMM 1830, 7 days at 27° C.): 0.63 ng/mL (≈ 0.00197 µM)
MIC ([1]; IFO5466, 168 h, strain IFO 5466): 0.02 µg/mL (≈ 0.0625 µM)
MIC ([1]; IFO5809, 168 h, strain IFO 5809): 0.005 µg/mL (≈ 0.0156 µM)
MIC ([1]; IFO5810, 168 h, strain IFO 5810): 0.005 µg/mL (≈ 0.0156 µM)
MIC ([1]; IFO5811, 168 h, strain IFO 5811): 0.02 µg/mL (≈ 0.0625 µM)
MIC ([1]; IFO5929, 168 h, strain IFO 5929): 0.01 µg/mL (≈ 0.0313 µM)
MIC ([1]; TIMM1189, 168 h, strain TIMM 1189): 0.01 µg/mL (≈ 0.0313 µM)
MIC ([1]; TIMM1814, 168 h, strain TIMM 1814): 0.02 µg/mL (≈ 0.0625 µM)
MIC ([1]; TIMM1815, 168 h, strain TIMM 1815): 0.02 µg/mL (≈ 0.0625 µM)
MIC ([1]; TIMM1817, 168 h, strain TIMM 1817): 0.02 µg/mL (≈ 0.0625 µM)
MIC ([1]; TIMM2789, 168 h, strain TIMM 2789): 0.005 µg/mL (≈ 0.0156 µM)
Compound: N#C/C(=C1/SC[C@@H](c2ccccc2Cl)S1)n1ccnc1 [Compound (A), R-(+)-(E)-[4-(2-chlorophenyl)-1,3-dithiolan-2-ylidene]-1-imidazolylacetonitrile]
antifungal activity relative to the racemic mixtures (dermatophytes): several times
sensitivity (in words) (Trichophyton rubrum): highly sensitive
in vitro antifungal activity relative to Racemic Compound (A) ([1]; MIC for T. mentagrophytes TIMM 2789): 4 times
effect relative to 1% Racemic Compound (A) ([2]; 0.5% Compound (A) vs 1% Racemic Compound (A)): twice; also recorded: more than twice
Average intensity of infection, planta pedis (score 0 to +10) [2, 3]: +0.3
Average intensity of infection, tarsus (score 0 to +10) [2, 3]: 0
Fungus-positive rate (%) [2, 3]: 20%
Fungus-positive rate: The number of positive feet/The total number of feet [2, 3]: 2/10
Fungus-positive rate (%) [2, 4]: 0%
Fungus-positive rate: The number of positive feet/The total number of feet [2, 4]: 0/10
Average intensity of infection, planta pedis (score 0 to +10) [2, 5]: 0
Average intensity of infection, tarsus (score 0 to +10) [2, 5]: 0
curative effect (in words) ([2]; 1% treated group): mycologically complete healing
curative effect compared with Racemic Compound (A) ([2]; at the same concentration): markedly higher

Reference: patent US5900488A, “Method for treating mycosis using imidazolylacetonitrile derivatives” (Nihon Nohyaku Co., Ltd., priority 1995, dated 1999)
